From PubChem BioAssay AID2060493 (Molecular Pharmacology Branch, DTP, NCI, 2025)

Test system: 616215-338-R-J1-PDC tumor spheroids, viability
Assay: Anticancer human tumor 616215-338-R-J1-PDC patient-derived colon adenocarcinoma cell line growth inhibition [GQUAD]
Details: spheroids with HUVEC and MSC; for IC50: curve of first compound; for viability, T/C: stronger effect = lower value
Method in brief: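 Tumor cells were grown as complex spheroids with HUVEC endothelial cells and mesenchymal stem cells as stroma. G-quadruplex stabilizers were combined with targeted agents over half-log dilutions from near the clinical Cmax, or from 10 microM.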

[1] = second compound 0.0316 µM, first compound 0.0316 µM
[2] = second compound 0.0316 µM, first compound 0.316 µM
[3] = second compound 0.1 µM, first compound 0.0316 µM
[4] = second compound 0.1 µM, first compound 0.316 µM
[5] = second compound 0.316 µM, first compound 0.0316 µM
[6] = second compound 0.316 µM, first compound 0.316 µM
[7] = second compound 1 µM, first compound 0.0316 µM
[8] = second compound 1 µM, first compound 0.316 µM
[9] = second compound 3.16 µM, first compound 0.0316 µM
[10] = second compound 3.16 µM, first compound 0.316 µM
[11] = second compound 10 µM, first compound 0.0316 µM
[12] = second compound 10 µM, first compound 0.316 µM
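Also: spheroids exposed to agents for 7 days before readout.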
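For viability, T/C in this document: percent viability relative to DMSO vehicle control wells taken as 100%.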

`O=C(c1cc(Cc2n[nH]c(=O)c3ccccc23)ccc1F)N1CCN(C(=O)C2CC2)CC1` + Cc1[nH]c2ccc(F)cc2c1-c1nc2c3cccnc3c3ncccc3c2[nH]1 gave an IC50 (second compound 0.0316 µM) greater than 10000 nM, an IC50 (second compound 0.1 µM) greater than 10000 nM and an IC50 (second compound 0.316 µM) greater than 10000 nM. For the same molecule, the IC50 (second compound 1 µM) was greater than 10000 nM, the IC50 (second compound 3.16 µM) was greater than 10000 nM and the IC50 (second compound 10 µM) was greater than 10000 nM. It also gave a viability, T/C [1] of 99.5%, a viability, T/C (second compound 0.0316 µM, first compound 0.1 µM) of 97% and a viability, T/C [2] of 107%. It also gave a viability, T/C (second compound 0.0316 µM, first compound 1 µM) of 101%, a viability, T/C (second compound 0.0316 µM, first compound 3.16 µM) of 98.6% and a viability, T/C (second compound 0.0316 µM, first compound 10 µM) of 74.2%. It also gave a viability, T/C [3] of 102%, a viability, T/C (second compound 0.1 µM, first compound 0.1 µM) of 100% and a viability, T/C [4] of 93.8%. It also gave a viability, T/C (second compound 0.1 µM, first compound 1 µM) of 102%, a viability, T/C (second compound 0.1 µM, first compound 3.16 µM) of 105% and a viability, T/C (second compound 0.1 µM, first compound 10 µM) of 72.3%. For the same molecule, the viability, T/C [5] was 93.9%, the viability, T/C (second compound 0.316 µM, first compound 0.1 µM) was 105% and the viability, T/C [6] was 98.9%. It also gave a viability, T/C (second compound 0.316 µM, first compound 1 µM) of 100%, a viability, T/C (second compound 0.316 µM, first compound 3.16 µM) of 104% and a viability, T/C (second compound 0.316 µM, first compound 10 µM) of 73.7%. It also gave a viability, T/C [7] of 98.8%, a viability, T/C (second compound 1 µM, first compound 0.1 µM) of 95.1% and a viability, T/C [8] of 104%. The viability, T/C (second compound 1 µM, first compound 1 µM) was 107%, the viability, T/C (second compound 1 µM, first compound 3.16 µM) was 85.9% and the viability, T/C (second compound 1 µM, first compound 10 µM) was 53.4%. For the same molecule, the viability, T/C [9] was 99.5%, the viability, T/C (second compound 3.16 µM, first compound 0.1 µM) was 105% and the viability, T/C [10] was 95%. For the same molecule, the viability, T/C (second compound 3.16 µM, first compound 1 µM) was 96.8%, the viability, T/C (second compound 3.16 µM, first compound 3.16 µM) was 110% and the viability, T/C (second compound 3.16 µM, first compound 10 µM) was 67.2%. The viability, T/C [11] was 96.5%, the viability, T/C (second compound 10 µM, first compound 0.1 µM) was 87.6% and the viability, T/C [12] was 98.2%. It also gave a viability, T/C (second compound 10 µM, first compound 1 µM) of 84.3%, a viability, T/C (second compound 10 µM, first compound 3.16 µM) of 91.3% and a viability, T/C (second compound 10 µM, first compound 10 µM) of 52%.
With `Cc1[nH]c2ccccc2c1CCNCc1ccc(/C=C/C(=O)NO)cc1` + Cc1cnc(CNC(=O)c2c(=O)c3ccc(N4CCCN(C)CC4)nc3n3c2sc2ccccc23)cn1 the IC50 (second compound 0.0316 µM) was 83.5 nM, the IC50 (second compound 0.1 µM) was 110 nM and the IC50 (second compound 0.316 µM) was less than 0.999 nM. For the same molecule, the IC50 (second compound 1 µM) was less than 0.999 nM, the IC50 (second compound 3.16 µM) was less than 0.999 nM and the IC50 (second compound 10 µM) was less than 0.999 nM. It also gave a viability, T/C (second compound 0.0316 µM, first compound 0.000999 µM) of 98.6%, a viability, T/C (second compound 0.0316 µM, first compound 0.00316 µM) of 99.3% and a viability, T/C (second compound 0.0316 µM, first compound 0.00999 µM) of 101%. The viability, T/C [1] was 105%, the viability, T/C (second compound 0.0316 µM, first compound 0.0999 µM) was 40.5% and the viability, T/C [2] was 24.4%. For the same molecule, the viability, T/C (second compound 0.1 µM, first compound 0.000999 µM) was 59.6%, the viability, T/C (second compound 0.1 µM, first compound 0.00316 µM) was 90% and the viability, T/C (second compound 0.1 µM, first compound 0.00999 µM) was 60.8%. The viability, T/C [3] was 66.6%, the viability, T/C (second compound 0.1 µM, first compound 0.0999 µM) was 54.4% and the viability, T/C [4] was 6.92%. It also gave a viability, T/C (second compound 0.316 µM, first compound 0.000999 µM) of 40.8%, a viability, T/C (second compound 0.316 µM, first compound 0.00316 µM) of 38.2% and a viability, T/C (second compound 0.316 µM, first compound 0.00999 µM) of 38.2%. For the same molecule, the viability, T/C [5] was 47.9%, the viability, T/C (second compound 0.316 µM, first compound 0.0999 µM) was 39.1% and the viability, T/C [6] was 0.77%. The viability, T/C (second compound 1 µM, first compound 0.000999 µM) was 36.5%, the viability, T/C (second compound 1 µM, first compound 0.00316 µM) was 23.8% and the viability, T/C (second compound 1 µM, first compound 0.00999 µM) was 28.2%. It also gave a viability, T/C [7] of 23.2%, a viability, T/C (second compound 1 µM, first compound 0.0999 µM) of 13.7% and a viability, T/C [8] of 0.06%. For the same molecule, the viability, T/C (second compound 3.16 µM, first compound 0.000999 µM) was 27.9%, the viability, T/C (second compound 3.16 µM, first compound 0.00316 µM) was 21.8% and the viability, T/C (second compound 3.16 µM, first compound 0.00999 µM) was 24.9%. For the same molecule, the viability, T/C [9] was 26.6%, the viability, T/C (second compound 3.16 µM, first compound 0.0999 µM) was 0.75% and the viability, T/C [10] was 0.11%. For the same molecule, the viability, T/C (second compound 10 µM, first compound 0.000999 µM) was 24.7%, the viability, T/C (second compound 10 µM, first compound 0.00316 µM) was 34.2% and the viability, T/C (second compound 10 µM, first compound 0.00999 µM) was 15.5%. It also gave a viability, T/C [11] of 17.7%, a viability, T/C (second compound 10 µM, first compound 0.0999 µM) of 0.25% and a viability, T/C [12] of 0.21%.
